How the values were obtained:
[1] = target: T1, MRGPRX2 (Homo sapiens, UniProt Q96LB1); assay: MRGPRX2 FLIPR Calcium Mobilization Assay; format: cell-based; design: host or cells: CHO-K1; settings: CHO-K1 cells stably expressing human MRGPRX2; Ca2+ release; agonist Cortistatin-14 at EC80
T1 sequence (Q96LB1 1-330): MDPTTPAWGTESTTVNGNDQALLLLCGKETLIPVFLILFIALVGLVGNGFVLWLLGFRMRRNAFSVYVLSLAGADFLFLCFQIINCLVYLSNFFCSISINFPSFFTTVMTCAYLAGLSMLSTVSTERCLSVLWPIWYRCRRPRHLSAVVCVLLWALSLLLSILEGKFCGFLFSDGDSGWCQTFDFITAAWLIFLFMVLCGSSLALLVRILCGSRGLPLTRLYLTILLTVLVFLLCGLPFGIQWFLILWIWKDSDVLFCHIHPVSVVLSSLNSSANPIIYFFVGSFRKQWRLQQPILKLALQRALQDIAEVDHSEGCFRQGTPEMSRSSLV
Method: Example A. MRGPRX2 FLIPR Calcium Mobilization Assay
Chinese hamster ovary (CHO-K1) cells stably expressing human MRGPRX2 were purchased from Genescript (Piscataway, NJ). The cells were maintained in culture medium (Ham's F-12K) containing 10% (v/v) FBS, 200 μg/mL Zeocin, 100 units/mL penicillin G and 100 μg/mL streptomycin (Life Technologies, Carlsbad, CA). For the assay, the cells were harvested and resuspended with culture medium without Zeocin before plating at 8000 cells per well in 20 μL in 384-well black clear bottom cell culture plates (VWR, Radnor, PA). After 24 hour culture at 37° C. and 5% CO2, the cells were loaded with 20 μL/well of calcium dye (FLIPR Calcium 6 Assay Kit, Molecular Devices, San Jose, CA) diluted in loading buffer (1× Hank's Balanced Salt Solution (HBSS), 5 mM probenecid, 20 mM 4-(2-hydroxyethyl)-1-piperazineethanesulfonic acid (HEPES), pH 7.4, VWR, Radnor, PA) followed with 45 min incubation at 37° C. and 40 min. at r.t. in the dark. Cells were then treated with the addition of 10 uL/well test compounds with a range of increasing concentrations diluted in the assay buffer (1×HBSS, 20 mM HEPES, pH 7.4, VWR, Radnor, PA) with FLIPR Penta (Molecular Devices. San Jose, CA) and incubated for 30 min. at r.t. Ca^2+ release was measured with FLIPR Penta with 10 s basal fluorescence measurement, then 12.5 μL of 5× agonist Cortistatin-14 (Tocris, Minneapolis, MN) at final concentration corresponding to the EC80 were added followed with continued fluorescence signal monitoring for an additional 110 s. The base line adjusted (median of first 10s base line) max value of the Relative Fluorescence Unit (RFU) was plotted against compound concentrations. Wells with no compound were served as the positive controls, and wells with high concentration of reference antagonist were used as negative controls. IC50 curves were globally fitted with 3- or 4-parameter Hill equation in a Genedata Screener (Genedata Basel, Switzerland).

[2] = target: T1, MRGPRX2; assay: MRGPRX2 β-Arrestin Assay; format: cell-based; design: host or cells: PathHunter CHO-K1; settings: PathHunter CHO-K1 MRGPRX2 β-Arrestin cell line; agonist Cortistatin 14 0.25 μM
Source text: Example C: MRGPRX2 β-Arrestin Assay
This assay measures compound inhibition of β-Arrestin recruitment, which is part of the G protein-independent pathway that results from the ligand-activated GPCR phosphorylation by specific GPCR kinases. The PathHunter CHO-K1 MRPGRX2 B-Arrestin Cell line stably expressing ProLink tagged MRGPRX2 and Enzyme Acceptor Tagged B-Arrestin was purchased from Eurofins DiscoverX, (Fremont, CA).
The cells were maintained in culture medium from the Europhins DiscoverX Cell Culture Kit-107 which includes FBS, hygromycin B and G418. For the assay, the cells were harvested and were resuspended with Cell Plating Reagent 2 (Eurofins DiscoverX). Cells were added 10000 cells in 25 μL/well to a 384-well black cell culture plate (Greiner VWR, Radnor, PA) which contained 125 nL/well of compound at a selected serially diluted concentration range or DMSO. The plate was incubated at 37° C. with 5% CO2 for 1 h. 2 μL/well of agonist Cortistatin 14 was diluted in Protein Dilution Buffer, (Eurofins DiscoverX) for a final concentration of 0.25 μM, was added and the plate was incubated at 37° C. with 5% CO2 for 90 min. 14 μL/well of Detection Reagent Mix (PathHunter Detection Kit, Eurofins DiscoverX) was added to the plates and further incubated for 1 h in the dark. Plates were read on the PHERAstar microplate reader (BMG Labtech Cary, NC) measuring luminescence 0.1 to 1 s per well. Data was normalized using DMSO only wells and wells with high concentration of reference antagonist as controls. Compound IC50 curves were globally fitted with 3- or 4-parameter Hill equation in a Genedata Screener (Genedata Basel, Switzerland).

Row | SMILES | IC50 [1] [nM] | IC50 [2] [nM]
1 | CC1(O)CCCN(C(c2cc3ncc(Oc4ccc(F)cc4F)cc3cn2)C(F)F)C1 (stereo not drawn) [Example 21, 1-(1-(3-(2,4-Difluorophenoxy)-1,6-naphthyridin-7-yl)-2,2-difluoroethyl)-3-methylpiperidin-3-ol] | 0.1 to 100 | 0.1 to 100
2 | Fc1ccc(Oc2cnc3cc(C(C(F)F)N4CCCC(c5ccn[nH]5)C4)ncc3c2)c(F)c1 (stereo not drawn) [Example 23, 7-(1-(3-(1H-Pyrazol-5-yl)piperidin-1-yl)-2,2-difluoroethyl)-3-(2,4-difluorophenoxy)-1,6-naphthyridine] | 0.1 to 100 | 0.1 to 100
3 | Fc1ccc(Oc2cnc3cc(C(N4CC5CCC4C5)C(F)(F)F)ncc3c2)c(F)c1 (stereo not drawn) [Example 11, 7-(1-(2-Azabicyclo[2.2.1]heptan-2-yl)-2,2,2-trifluoroethyl)-3-(2,4-difluorophenoxy)-1,6-naphthyridine] | – | 100 to 1000
4 | CC1(C)CN(C(c2cc3ncc(Oc4ccc(F)cc4F)cc3cn2)C(F)(F)F)CCO1 (stereo not drawn) [Example 8, 4-(1-(3-(2,4-Difluorophenoxy)-1,6-naphthyridin-7-yl)-2,2,2-trifluoroethyl)-2,2-dimethylmorpholine] | 0.1 to 100 | 0.1 to 100
5 | Fc1ccc(Oc2cnc3cc(C(C(F)F)N4CCCC4c4ccccc4)ncc3c2)c(F)c1 (stereo not drawn) [Example 25, 7-(2,2-Difluoro-1-(2-phenylpyrrolidin-1-yl)ethyl)-3-(2,4-difluorophenoxy)-1,6-naphthyridine] | 0.1 to 100 | 0.1 to 100
6 | O=c1ccc(C2CN(C(c3cc4ncc(Cc5ccccc5)cc4cn3)C(F)(F)F)CCC2(F)F)c[nH]1 (stereo not drawn) [Example 27, 5-(1-(1-(3-Benzyl-1,6-naphthyridin-7-yl)-2,2,2-trifluoroethyl)-4,4-difluoropiperidin-3-yl)pyridin-2(1H)-one] | – | > 1000
7 | O=c1ccc(C2CN(C(c3cc4ncc(Nc5ccc(F)cc5F)cc4cn3)C(F)(F)F)CCC2(F)F)c[nH]1 (stereo not drawn) [Example 26, 5-(1-(1-(3-((2,4-Difluorophenyl)amino)-1,6-naphthyridin-7-yl)-2,2,2-trifluoroethyl)-4,4-difluoropiperidin-3-yl)pyridin-2(1H)-one] | – | > 1000

Results, then the compound that gave them:

Row | IC50 [1] [nM] | IC50 [2] [nM] | SMILES
8 | 0.1 to 100 | 0.1 to 100 | OC[C@@H]1CCCN1C(c1cc2ncc(Oc3ccc(F)cc3F)cc2cn1)C(F)(F)F (stereo partly drawn) [Example 13, ((2S)-1-(1-(3-(2,4-Difluorophenoxy)-1,6-naphthyridin-7-yl)-2,2,2-trifluoroethyl)pyrrolidin-2-yl)methanol]
9 | 0.1 to 100 | 0.1 to 100 | NC(=O)[C@@H]1CCCN1C(c1cc2ncc(Oc3ccc(F)cc3F)cc2cn1)C(F)F (stereo partly drawn) [Example 24, (2S)-1-(1-(3-(2,4-Difluorophenoxy)-1,6-naphthyridin-7-yl)-2,2-difluoroethyl)pyrrolidine-2-carboxamide]
10 | 0.1 to 100 | 0.1 to 100 | CC1(CO)CCCN(C(c2cc3ncc(Oc4ccc(F)cc4F)cc3cn2)C(F)(F)F)C1 (stereo not drawn) [Example 9, (1-(1-(3-(2,4-Difluorophenoxy)-1,6-naphthyridin-7-yl)-2,2,2-trifluoroethyl)-3-methylpiperidin-3-yl)methanol]
11 | 0.1 to 100 | 0.1 to 100 | Fc1ccc(Oc2cnc3cc(C(C(F)F)N4CCC(F)(F)CC4)ncc3c2)c(F)c1 (stereo not drawn) [Example 22, 3-(2,4-Difluorophenoxy)-7-(1-(4,4-difluoropiperidin-1-yl)-2,2-difluoroethyl)-1,6-naphthyridine]
12 | 0.1 to 100 | 0.1 to 100 | N#CC1CCCN(C(c2cc3ncc(Oc4ccc(F)cc4F)cc3cn2)C(F)(F)F)C1 (stereo not drawn) [Example 10, 1-(1-(3-(2,4-Difluorophenoxy)-1,6-naphthyridin-7-yl)-2,2,2-trifluoroethyl)piperidine-3-carbonitrile]
